Reference: patent publication US20220193013A1, “Pharmaceutical Composition for Treatment or Prevention of Multiple Inflammatory Disorders” (priority 2020, published 2022)

What was measured:
[1] = tested on: air pouch model of inflammation, C57BL/6 mice; assay: murine air pouch model of inflammation (LPS induction); type: in vivo, mouse
Procedure: This example provides the results of investigating DA to modulate immune response in a murine air pouch model of inflammation. Eight C57BL/6 mice were assigned to groups for gavage treatment (BID) of controls (distilled water), DA at a dose of 23.1 mg/kg BID (low dose DA), and DA at a dose of 96.4 mg/kg BID (high dose DA). What was measured was infiltrating cell counts with air pouch exudates, IL-6 levels in air pouch exudates by an ELISA assay (R&D Systems Cat. No. M6000B), and multiple cytokine analysis (Mouse 32Plex Kit MilliporeSigma Cat. No. MCYTMAG70PMX32BK). Statistical analysis was done by a one-way ANOVA followed by Tukey's multiple comparison post hoc test for data with normal distribution, Kruskal-Wallis test followed by Dunn's multiple comparison post hoc test for data with skewed distribution, and the ROUT method for identifying outliers.
Duarte et al., Current Protocols in Pharmacology, 5.6.1-5.6.8 Mar. 2012, describes “The subcutaneous air pouch is an in vivo model that can be used to study acute and chronic inflammation, the resolution of the inflammatory response, and the oxidative stress response. Injection of irritants into an air pouch in rats or mice induces an inflammatory response that can be quantified by the volume of exudate produced, the infiltration of cells, and the release of inflammatory mediators. The model presented in this unit has been extensively used to identify potential anti-inflammatory drugs.” It can be used to study localized inflammation without systemic effects. But in this case the drug was administered orally, by gavage BID.
Test administration was 5 ml/kg body weight BID dosing with 8 hour intervals. The air pouch was created in each test BL6 mouse by sc injection of 1.5 ml/mouse of sterile air on day 0 and 1.5 ml/mouse of sterile air on day 3. Compounds (or control distilled water) were administered BID on day −2. LPS (0.75 mg/animal in 1 ml endotoxin free PBS) was administered at hour 0 or one hour after dosing with test compounds. Plasma samples were collected at termination and exudates of the air pouches for all groups. Cell count analysis and IL-6 assays were conducted at the animal facility and plasma and exudate samples were sent out for cytokine analysis. Each group of distilled water control, 23.1 mg/kg DA and 92.4 mg/kg DA had 8 mice each.

[2] = tested on: inflammatory biomarkers in tested animals; assay: biomarkers compared across many studies (Table 2); type: in vivo; conditions: PO 92.4 mg/kg DA BID
Procedure: The many examples provided herein show the effect of the denatonium salts on various in vivo and in vitro models of various disease indications. In addition, blood samples were taken from the tested (and control) animals and various biomarkers were measured and compared. FIGS. 70A-C show graphs comparing biomarkers across many studies. […] It should be noted that clusters of multiple biomarkers predict effectiveness for each disease indication and that grouping is shown in FIG. 71.

CC(=O)[O-].CC[N+](CC)(CC(=O)Nc1c(C)cccc1C)Cc1ccccc1 [DA, denatonium acetate]
IL-1β level ([1]; higher dose of DA): significant reduction
IL-10 level ([1]; higher dose of DA): significant reduction
IL-17 level ([1]; higher dose of DA): significant reduction
TNF-1α level ([1]; higher dose of DA): significant reduction
IL-6 levels in air pouch exudates ([1]; pre-treated with DA at 96.4 mg/kg BID gavage, ELISA, vs vehicle and lower dose): significantly lower
infiltrating cell count in air pouch exudates ([1]; pre-treated with DA at 96.4 mg/kg BID gavage, vs vehicle and lower dose): significantly lower
Eotaxin, Decreased Percentage Compared to Vehicle [2]: −18.6%
G-CSF, Decreased Percentage Compared to Vehicle [2]: −37.5%
GM-CSF, Decreased Percentage Compared to Vehicle [2]: −2.3%
IFN-γ, Decreased Percentage Compared to Vehicle [2]: −37.3%
IL-1α, Decreased Percentage Compared to Vehicle [2]: −18.2%
IL-1β, Decreased Percentage Compared to Vehicle [2]: −12.0%
IL-3, Decreased Percentage Compared to Vehicle [2]: −74.5%
IL-5, Decreased Percentage Compared to Vehicle [2]: −29.1%
IL-6, Decreased Percentage Compared to Vehicle [2]: −34.2%
IL-10, Decreased Percentage Compared to Vehicle [2]: −92.5%
IL-12 (p70), Decreased Percentage Compared to Vehicle [2]: −28.0%
IL-17, Decreased Percentage Compared to Vehicle [2]: −21.2%
KC, Decreased Percentage Compared to Vehicle [2]: −21.6%
LIX, Decreased Percentage Compared to Vehicle [2]: −7.3%
MCP-1, Decreased Percentage Compared to Vehicle [2]: −24.2%
MIG, Decreased Percentage Compared to Vehicle [2]: −13.2%
MIP-1α, Decreased Percentage Compared to Vehicle [2]: −3.4%
MIP-1β, Decreased Percentage Compared to Vehicle [2]: −10.2%
MIP-2, Decreased Percentage Compared to Vehicle [2]: −76.3%
RANTES, Decreased Percentage Compared to Vehicle [2]: −20.6%
